Measurements published in EP0104611A2, “Thiatriazine derivatives” (HOECHST UK LIMITED, priority 1982, dated 1984).

System: perfused rat stomach
Assay: antisecretory activity in the perfused rat stomach (inhibition of histamine- or pentagastrin-stimulated acid secretion)
Format: in vivo
Settings: iv, amount required to inhibit the histamine- or pentagastrin-stimulated secretion by 50 %, two to four rats per determination, read-out: ID50 (μmoles/kg) Rat perfused stomach i.v.
Procedure: Compounds of this invention were tested for […]- tory activity in the perfused rat stomach. The method of Gosh and Schild, Brit. […] After the secretion plateau was reached, the test compound was administered i.v. and the amount of comound required to inhibit the stimulated secretion by 50 % was determined. Two to four rats were used for each determination. [drawing 17]

SMILES	ED50 [µmol/kg]
CN(C)C1=NS(=O)(=O)N=C(NCCSCc2csc(N=C(N)N)n2)N1C [-N(CH3)2]	0.095
CN1C(N)=NS(=O)(=O)N=C1NCCSCc1csc(N=C(N)N)n1 [-NH2, 3-N-[2-[(2-Guanidino-4-thiazolyl)methylthio]-ethyl]-amino-4-methyl-5-amino-1,2,4,6-thiatriazine-1,1-dioxide]	0.15
CC(C)NC1=NS(=O)(=O)N=C(NCCSCc2csc(N=C(N)N)n2)N1C [-NH-CH(CH3)2]	0.28
C#CCNC1=NS(=O)(=O)N=C(NCCSCc2csc(N=C(N)N)n2)N1C [-NHCH2C≡CH]	0.12
CN1C(NC#N)=NS(=O)(=O)N=C1NCCSCc1csc(N=C(N)N)n1 [-NHCN]	0.34
CN/C(=N/CCSCc1nc[nH]c1C)NC#N [Cimetidine, reference compound]	10.8
